Values joined by “and” are separate entries in the source; they are usually repeats but may differ in a detail not shown here. Equal values may be shown once.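 1) Cells in 96-well plates. 2) Compound, 48 h, 5 concentrations. 3) Linear interpolation between surrounding doses. 4) Unreached endpoint = highest concentration. At the GI50, growth is halved. Definition used: TGI = concentration required for complete inhibition of growth.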
Assays:
Assay in all cases: DTP human tumour cell line panel, 48 h
[1] = system: SK-MEL-2 melanoma
[2] = system: MDA-MB-435
[3] = system: HOP-92 NSCLC
[4] = system: KM12 colon
[5] = system: SF-295 CNS
[6] = system: BT-549 breast
[7] = system: SF-539 CNS
[8] = system: CCRF-CEM leukemia
[9] = system: UACC-62 melanoma
[10] = system: M14 melanoma
[11] = system: SW-620 colon
[12] = system: MOLT-4 leukemia
[13] = system: EKVX NSCLC
[14] = system: HCC-2998 colon
[15] = system: MALME-3M melanoma
[16] = system: UACC-257 melanoma
[17] = system: K-562 leukemia
[18] = system: NCI/ADR-RES ovarian
[19] = system: T-47D breast
[20] = system: OVCAR-4 ovarian
[21] = system: HCT-15 colon
[22] = system: SK-OV-3 ovarian
[23] = system: HOP-62 NSCLC
[24] = system: SN12C renal
[25] = system: NCI-H23 lung
[26] = system: OVCAR-8 ovarian
[27] = system: MCF7 breast
[28] = system: HL-60(TB) leukemia
[29] = system: A549 NSCLC
[30] = system: MDA-MB-231 breast
[31] = system: NCI-H226 lung
[32] = system: SNB-75 CNS
[33] = system: SK-MEL-5 melanoma
[34] = system: NCI-H460 lung
[35] = system: SF-268 CNS
[36] = system: SK-MEL-28 melanoma
[37] = system: NCI-H522 lung
[38] = system: A498 renal
[39] = system: HS 578T breast
[40] = system: PC-3 prostate
[41] = system: UO-31 renal
[42] = system: RXF 393 renal
[43] = system: DU-145 prostate
[44] = system: SR leukemia
[45] = system: SNB-19 CNS
[46] = system: ACHN renal
[47] = system: RPMI-8226 leukemia
[48] = system: HT29 colon
[49] = system: CAKI-1 renal
[50] = system: LOX IMVI melanoma
[51] = system: HCT-116 colon
[52] = system: 786-0 renal
[53] = system: COLO 205 colon
[54] = system: IGROV1 ovarian
[55] = system: OVCAR-3 ovarian
[56] = system: U251 CNS
[57] = system: OVCAR-5 ovarian
[58] = system: TK-10 renal

COc1ccc(Cl)c(Nc2nc3ccccc3nc2NS(=O)(=O)c2cccc(NC(=O)C(C)(C)N)c2)c1
GI50 [1]: 14.9 µM and > 10 µM | TGI [1]: 32.1 µM and > 10 µM | GI50 [2]: 11.5 µM and > 10 µM | TGI [2]: 25.2 µM and > 10 µM | GI50 [3]: 1.57 µM and 0.358 µM | TGI [3]: 9.94 µM and 5.42 µM | GI50 [4]: 12 µM and > 10 µM | TGI [4]: 30.9 µM and > 10 µM | GI50 [5]: 4.7 µM and 2.56 µM | TGI [5]: 18.8 µM and > 10 µM | GI50 [6]: 4.87 µM and 4.42 µM | TGI [6]: 18.4 µM and > 10 µM | GI50 [7]: 7.35 µM and 4.42 µM | TGI [7]: 20.4 µM and > 10 µM | GI50 [8]: 12.3 µM and > 10 µM | TGI [8]: 31.9 µM and > 10 µM | GI50 [9]: 13 µM | TGI [9]: 26.6 µM | GI50 [10]: 12.5 µM and > 10 µM | TGI [10]: 29 µM and > 10 µM | GI50 [11]: 11.6 µM and > 10 µM | TGI [11]: 26.2 µM and > 10 µM | GI50 [12]: 3.5 µM and 3.66 µM | TGI [12]: 17.4 µM and > 10 µM | GI50 [13]: 6.25 µM and > 10 µM | TGI [13]: 21 µM and > 10 µM | GI50 [14]: 13 µM and 5.73 µM | TGI [14]: 26.6 µM and > 10 µM | GI50 [15]: 10.2 µM and > 10 µM | TGI [15]: 24.9 µM and > 10 µM | GI50 [16]: 12.1 µM and > 10 µM | TGI [16]: 25.1 µM and > 10 µM | GI50 [17]: 14.9 µM and > 10 µM | TGI [17]: 32.6 µM and > 10 µM | GI50 [18]: 12.1 µM and > 10 µM | TGI [18]: 32.3 µM and > 10 µM | GI50 [19]: 0.443 µM and 0.638 µM | TGI [19]: 5.05 µM and 5.77 µM | GI50 [20]: 14.8 µM and > 10 µM | TGI [20]: 28.3 µM and > 10 µM | GI50 [21]: 9.76 µM and 6.97 µM | TGI [21]: 22 µM and > 10 µM | GI50 [22]: 5 µM and 1.89 µM | TGI [22]: 18.6 µM and > 10 µM | GI50 [23]: 4.66 µM and > 10 µM | TGI [23]: 20 µM and > 10 µM | GI50 [24]: 9.79 µM and > 10 µM | TGI [24]: 22.3 µM and > 10 µM | GI50 [25]: 13.2 µM and > 10 µM | TGI [25]: 29.1 µM and > 10 µM | GI50 [26]: 14 µM and > 10 µM | TGI [26]: 32.8 µM and > 10 µM | GI50 [27]: 2.66 µM and 1.9 µM | TGI [27]: 16.8 µM and > 10 µM | GI50 [28]: 5.93 µM and 2.1 µM | TGI [28]: 20.7 µM and > 10 µM | GI50 [29]: 7.7 µM and > 10 µM | TGI [29]: 21.4 µM and > 10 µM | GI50 [30]: 14.5 µM and > 10 µM | TGI [30]: 32.6 µM and > 10 µM | GI50 [31]: 15.3 µM and > 10 µM | TGI [31]: 40.2 µM and > 10 µM | GI50 [32]: 1.35 µM and 0.481 µM | TGI [32]: 10 µM and 6.6 µM | GI50 [33]: 12.1 µM and > 10 µM | TGI [33]: 24.6 µM and > 10 µM | GI50 [34]: 6.51 µM and 4.52 µM | TGI [34]: 20.8 µM and > 10 µM | GI50 [35]: 10.9 µM and 9.94 µM | TGI [35]: 25.5 µM and > 10 µM | GI50 [36]: 7.93 µM and > 10 µM | TGI [36]: 22.2 µM and > 10 µM | GI50 [37]: 14.7 µM and > 10 µM | TGI [37]: 30.5 µM and > 10 µM | GI50 [38]: 3.1 µM and 3.23 µM | TGI [38]: 13.6 µM and > 10 µM | GI50 [39]: 2.37 µM and 1.69 µM | TGI [39]: 15.1 µM and > 10 µM | GI50 [40]: 3.42 µM and 2.65 µM | TGI [40]: 17.5 µM and > 10 µM | GI50 [41]: 1.9 µM and 2.03 µM | TGI [41]: 13.5 µM and > 10 µM | GI50 [42]: 1.89 µM and 2.62 µM | TGI [42]: 9.03 µM and > 10 µM | GI50 [43]: 12.1 µM and > 10 µM | TGI [43]: 25 µM and > 10 µM | GI50 [44]: 10.2 µM and > 10 µM | TGI [44]: 28.1 µM and > 10 µM | GI50 [45]: 12.4 µM and > 10 µM | TGI [45]: 25.9 µM and > 10 µM | GI50 [46]: 10.5 µM and > 10 µM | TGI [46]: 22.6 µM and > 10 µM | GI50 [47]: 13.4 µM and > 10 µM | TGI [47]: 52.8 µM and > 10 µM | GI50 [48]: 9.87 µM and 6.23 µM | TGI [48]: 25.9 µM and > 10 µM | GI50 [49]: 6.49 µM | TGI [49]: > 10 µM | GI50 [50]: 6.52 µM and 4.14 µM | TGI [50]: 20.2 µM and > 10 µM | GI50 [51]: 12.8 µM and > 10 µM | TGI [51]: 25.8 µM and > 10 µM | GI50 [52]: 6.19 µM and 5.38 µM | TGI [52]: 19.8 µM and > 10 µM | GI50 [53]: 7.53 µM and 2.86 µM | TGI [53]: 22.3 µM and > 10 µM | GI50 [54]: 1.41 µM and 0.686 µM | TGI [54]: 6.63 µM and 4.86 µM | GI50 [55]: 7.68 µM and 4.12 µM | TGI [55]: 21.3 µM and > 10 µM | GI50 [56]: 11 µM and > 10 µM | TGI [56]: 24.1 µM and > 10 µM | GI50 [57]: 4.76 µM and > 10 µM | TGI [57]: 22.5 µM and > 10 µM | GI50 [58]: 5.68 µM and 4.24 µM | TGI [58]: 20.1 µM and > 10 µM

— PubChem BioAssay (NCI)
